# Measurements published in patent publication US8598226B2, “Fused cyclic compounds” (Takeda Pharmaceutical Company Limited, priority 2006, dated 2013).
# Counter-ions that a name gives are not always drawn.
# Biological target: T1, human-derived GPR40 (Homo sapiens, UniProt O14842)
# T1 construct: expressed in transfected cells
# Experiment: Receptor function modulating action (agonist action) on human-derived GPR40: variation in intracellular calcium concentration in CHO cells (FLIPR or Cell Lux)
# Type: cell-based
# Conditions: each compound at 1 μM; relative to activity of 10 μM γ-linolenic acid = 100%; CHO cell line stably expressing human-derived GPR40; FLIPR for Examples 2, 6, 8, 10, 11, 13, Cell Lux for Examples 19-34
# Description: A CHO cell line stably expressing human-derived GPR40 was used for determining the agonist activity. […] One day before the assay, the cells cultured to near confluence were rinsed with PBS (Invitrogen), detached using 0.5 mM EDTA (Wako Pure Chemical Industries, Ltd.) and recovered by centrifugation. The obtained cells were counted and diluted to 3×10^5 cells per 1 mL medium. The cells were dispensed to a 96-well black clear bottom plate (Coster) by 100 μL per well and cultured overnight in a CO2 incubator. To the CHO cells prepared in this manner were added various test compounds, and variation in the intracellular calcium concentration was measured using FLIPR (Molecular Device) or Cell Lux (PerkinElmer). For measurement of variation in the intracellular calcium concentration using FLIPR or Cell Lux, the following pretreatment was performed. […] Then, a fluorescence dye solution was dispensed by 100 μL per well, and the cells were cultured in a CO2 incubator for 1 hr to allow intake of the fluorescence dye. During this time, the test compound was diluted to a given concentration with the assay buffer, and dispensed to a polypropylene 96-well plate (sample plate) by 100 μL. The cell plate and the sample plate were simultaneously set in the FLIPR or Cell Lux. After the foregoing pretreatment, variation in the intracellular calcium concentration after addition of 50 μL of various test compounds was measured using FLIPR or Cell Lux.
# T1 sequence (O14842 whole entry): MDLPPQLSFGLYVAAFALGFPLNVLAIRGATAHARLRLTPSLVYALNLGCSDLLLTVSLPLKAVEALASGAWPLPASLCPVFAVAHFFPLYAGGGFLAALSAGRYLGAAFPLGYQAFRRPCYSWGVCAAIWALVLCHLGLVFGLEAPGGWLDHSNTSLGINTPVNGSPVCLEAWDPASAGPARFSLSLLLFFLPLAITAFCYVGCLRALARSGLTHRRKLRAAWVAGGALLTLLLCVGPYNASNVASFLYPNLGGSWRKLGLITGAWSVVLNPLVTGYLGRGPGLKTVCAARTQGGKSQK
SMILES,activation at 1 µM,Relative activity value
"Cc1cc(OC2CCS(=O)(=O)CC2)cc(C)c1-c1cccc(COc2ccc3c(c2)OC[C@H]3CC(=O)O)c1 [Example 2, [(3S)-6-({4′-[(1,1-dioxidotetrahydro-2H-thiopyran-4-yl)oxy]-2′,6′-dimethylbiphenyl-3-yl}methoxy)-2,3-dihydro-1-benzofuran-3-yl]acetic acid]",107%,
"Cc1cc(OCC2(O)CCS(=O)(=O)CC2)cc(C)c1-c1cccc(COc2ccc3c(c2)OC[C@H]3CC(=O)O)c1 [Example 6, [(3S)-6-({4′-[(4-hydroxy-1,1-dioxidotetrahydro-2H-thiopyran-4-yl)methoxy]-2′,6′-dimethylbiphenyl-3-yl}methoxy)-2,3-dihydro-1-benzofuran-3-yl]acetic acid]",102%,
"Cc1c(C)c(-c2cccc(COc3ccc4c(c3)OC[C@H]4CC(=O)O)c2)c(C)c(C)c1OCCCS(C)(=O)=O [Example 8, [(3S)-6-({2′,3′,5′,6′-tetrameramethyl-4′-[3-(methylsulfonyl)propoxy]biphenyl-3-yl}methoxy)-2,3-dihydro-1-benzofuran-3-yl]acetic acid]",112%,
"Cc1cc(OCCCS(C)(=O)=O)cc(C)c1-c1cccc(COc2ccc3c(c2)OC[C@H]3CC(=O)O)c1 [Example 10, [(3S)-6-({2′,6′-dimethyl-4′-[3-(methylsulfonyl)propoxy]biphenyl-3-yl}methoxy)-2,3-dihydro-1-benzofuran-3-yl]acetic acid]",,114%
"CCS(=O)(=O)CCOc1cc(C)c(-c2cccc(COc3ccc4c(c3)OC[C@H]4CC(=O)O)c2)c(C)c1 [Example 11, [(3S)-6-({4′-[2-(ethylsulfonyl)ethoxy]-2′,6′-dimethylbiphenyl-3-yl}methoxy)-2,3-dihydro-1-benzofuran-3-yl]acetic acid]",120%,
"Cc1cc(OCCCS(C)(=O)=O)c(F)c(C)c1-c1cccc(COc2ccc3c(c2)OC[C@H]3CC(=O)O)c1 [Example 13, [(3S)-6-({3′-fluoro-2′,6′-dimethyl-4′-[3-(methylsulfonyl)propoxy]biphenyl-3-yl}methoxy)-2,3-dihydro-1-benzofuran-3-yl]acetic acid]",125%,
"Cc1cc(OCCCS(C)(=O)=O)cc(CO)c1-c1cccc(COc2ccc3c(c2)OC[C@H]3CC(=O)O)c1 [Example 19, [(3S)-6-({2′-(hydroxymethyl)-6′-methyl-4′-[3-(methylsulfonyl)propoxy]biphenyl-3-yl}methoxy)-2,3-dihydro-1-benzofuran-3-yl]acetic acid]",118%,
"Cc1cc(OCCCS(C)(=O)=O)c(Cl)c(C)c1-c1cccc(COc2ccc3c(c2)OC[C@H]3CC(=O)O)c1 [Example 22, [(3S)-6-({3′-chloro-2′,6′-dimethyl-4′-[3-(methylsulfonyl)propoxy]biphenyl-3-yl}methoxy)-2,3-dihydro-1-benzofuran-3-yl]acetic acid]",121%,

# More lines, now with the values ahead:
activation at 1 µM,Relative activity value,SMILES
96%,,"Cc1c(Cl)c(OCCCS(C)(=O)=O)c(Cl)c(C)c1-c1cccc(COc2ccc3c(c2)OC[C@H]3CC(=O)O)c1 [Example 24, [(3S)-6-({3′,5′-dichloro-2′,6′-dimethyl-4′-[3-(methylsulfonyl)propoxy]biphenyl-3-yl}methoxy)-2,3-dihydro-1-benzofuran-3-yl]acetic acid]"
101%,,"CCc1cc(OCCCS(C)(=O)=O)cc(CC)c1-c1cccc(COc2ccc3c(c2)OC[C@H]3CC(=O)O)c1 [Example 26, [(3S)-6-({2′,6′-diethyl-4′-[3-(methylsulfonyl)propoxy]biphenyl-3-yl}methoxy)-2,3-dihydro-1-benzofuran-3-yl]acetic acid]"
92%,,"CCc1c(Cl)c(OCCCS(C)(=O)=O)c(Cl)c(CC)c1-c1cccc(COc2ccc3c(c2)OC[C@H]3CC(=O)O)c1 [Example 28, [(3S)-6-({3′,5′-dichloro-2′,6′-diethyl-4′-[3-(methylsulfonyl)propoxy]biphenyl-3-yl}methoxy)-2,3-dihydro-1-benzofuran-3-yl]acetic acid]"
108%,,"Cc1cc(OCCCS(C)(=O)=O)cc(C)c1-c1cc(COc2ccc3c(c2)OC[C@H]3CC(=O)O)ccc1Oc1ccccc1 [Example 30, [(3S)-6-({2′,6′-dimethyl-4′-[3-(methylsulfonyl)propoxy]-6-phenoxybiphenyl-3-yl}methoxy)-2,3-dihydro-1-benzofuran-3-yl]acetic acid 0.5 calcium salt]"
104%,,"Cc1cc(OCCCS(C)(=O)=O)cc(C)c1-c1cc(COc2ccc3c(c2)OC[C@H]3CC(=O)O)ccc1COc1ccccc1 [Example 32, [(3S)-6-({2′,6′-dimethyl-4′-[3-(methylsulfonyl)propoxy]-6-(phenoxymethyl)biphenyl-3-yl}methoxy)-2,3-dihydro-1-benzofuran-3-yl]acetic acid]"
119%,,"Cc1cc(OCCCS(C)(=O)=O)cc(C)c1-c1cc(COc2ccc3c(c2)OC[C@H]3CC(=O)O)c(F)cc1OCc1ccccc1 [Example 34, [(3S)-6-({6-(benzyloxy)-4-fluoro-2′,6′-dimethyl-4′-[3-(methylsulfonyl)propoxy]biphenyl-3-yl}methoxy)-2,3-dihydro-1-benzofuran-3-yl]acetic acid]"

# Same assay, conditions: each compound at 1 μM; relative to activity of 10 μM γ-linolenic acid = 100%; CHO cell line stably expressing human-derived GPR40; FLIPR for Examples 2, 6, 8, 10, 11, 13, Cell Lux for Examples 19-34; hydrate
row,Relative activity value,SMILES
1,118%,"Cc1cc(OCCCS(C)(=O)=O)cc(C)c1-c1cccc(COc2ccc3c(c2)OC[C@H]3CC(=O)O)c1 [Example 20, [(3S)-6-({2′,6′-dimethyl-4′-[3-(methylsulfonyl)propoxy]biphenyl-3-yl}methoxy)-2,3-dihydro-1-benzofuran-3-yl]acetic acid 0.5 hydrate]"

# Same assay, conditions: reference agonist at 10 μM, its activity set as 100%; CHO cell line stably expressing human-derived GPR40
row,Relative activity value,SMILES
1,100%,"CCCCC/C=C\C/C=C\C/C=C\CCCCC(=O)O [γ-linoleic acid, γ-linolenic acid, reference compound]"
